Data published in patent US20030113797A1, “Method for generating, screening and dereplicating natural product libraries for the discovery of therapeutic agents” (UNIGEN PHARMACEUTICALS, INC., priority 2001, published 2003).

Columns and labels:
[1] = test system: B16 F1 mouse melanoma cells; assay: Inhibition of melanogenesis (alpha-MSH stimulated melanin formation); format: cell-based; conditions: identified by dereplication of fractions D2 to D7
Protocol: Inhibition of melanogenesis was determined by a modified method of Siegrist and Eberle (x). B16 F1 mouse melanoma cells (2.0×10^4 cells/mL) were subcultured in GibcoBRL Modified Eagle Medium (10% FBS, 1% Gibco non-essential amino acids, 1% PSG, 1.5% Gibco vitamin solution). After 3 days incubation (37° C., 5% CO2) cells were seeded (2500 cells/well, 200 μL) in 96 well sterile culture plates (Costar) and incubated overnight (37° C., 5% CO2). The next day, cell culture medium was replaced with 100 μL fresh medium. Extract samples were dissolved in DMSO at a concentration of 30 mg/mL and diluted 1:1000 in cell culture medium on separate, sterile, 96 well plates. […] Sample wells containing no α-MSH were used to determine sample absorbance at 450 nm unrelated to melanin pigment formation as control. […] The degree of melanin formation was determined at 450 nm in a 96 well plate reader. Percent inhibition of samples was determined by the formula: […]
Ac MSH+: Absorbance at 450 nm of cells containing no sample, with MSH
Ac MSH−: Absorbance at 450 nm of cells containing no sample, without MSH
As MSH+: Absorbance at 450 nm of cells containing sample, with MSH
As MSH−: Absorbance at 450 nm of cells containing sample, without MSH

[2] = test system: COX-1 and COX-2 recombinant enzymes; conditions: major compound of fraction D3, Camellia sinensis aqueous extract; cited from earlier work

Row | SMILES | Inhibition of melanin synthesis [1] | COX inhibitor (known activity) [2]
1 | O=C(OC1C(CO)OC(O)C2OC(=O)c3cc(O)c(O)c(O)c3-c3c(cc(O)c(O)c3O)C(=O)OC21)c1cc(O)c(O)c(O)c1 (centres unmarked) [Pterocaryanin B] | inhibition of melanin synthesis | 
2 | O=C(O[C@@H]1Cc2c(O)cc(O)cc2O[C@@H]1c1cc(O)c(O)c(O)c1)c1cc(O)c(O)c(O)c1 [Epigallocatechin Gallate (EGCG), Epigallocatechin Gallate] |  | well known COX inhibitor
